# Like-named read-outs stand apart in the source and are kept apart here.
# Tests used:
# Assay in all cases: biochemical
# [1] = biological target: EZH2 Complex (Homo sapiens, UniProt Q15910); design: Complex; protein methyltransferase selectivity panel, enzyme activity relative to DMSO controls, single concentration in duplicate; details: Substrate:=Core Histone
# Procedure: (§1) We next assessed selectivity of MS67 against 22 protein methyltransferases (table S2) and a broad panel of common drug targets including 45 kinases (table S3) and 44 G protein–coupled receptors (GPCR), ion channels, and transporters (table S4). […] We subsequently determined that MS67 had moderate binding affinity (Ki = 1.0 ± 0.8 μM) to Sigma 2 receptor (fig. S10).
# [2] = biological target: PRMT3 (Homo sapiens, UniProt O60678); design: protein methyltransferase inhibition panel, single concentration, duplicate
# Procedure: as §1
# [3] = biological target: T1, G9a (Homo sapiens, UniProt Q96KQ7); design: protein methyltransferase inhibition panel, single concentration, duplicate
# T1 construct: gene EHMT2
# T1 sequence (Q96KQ7 1-1210): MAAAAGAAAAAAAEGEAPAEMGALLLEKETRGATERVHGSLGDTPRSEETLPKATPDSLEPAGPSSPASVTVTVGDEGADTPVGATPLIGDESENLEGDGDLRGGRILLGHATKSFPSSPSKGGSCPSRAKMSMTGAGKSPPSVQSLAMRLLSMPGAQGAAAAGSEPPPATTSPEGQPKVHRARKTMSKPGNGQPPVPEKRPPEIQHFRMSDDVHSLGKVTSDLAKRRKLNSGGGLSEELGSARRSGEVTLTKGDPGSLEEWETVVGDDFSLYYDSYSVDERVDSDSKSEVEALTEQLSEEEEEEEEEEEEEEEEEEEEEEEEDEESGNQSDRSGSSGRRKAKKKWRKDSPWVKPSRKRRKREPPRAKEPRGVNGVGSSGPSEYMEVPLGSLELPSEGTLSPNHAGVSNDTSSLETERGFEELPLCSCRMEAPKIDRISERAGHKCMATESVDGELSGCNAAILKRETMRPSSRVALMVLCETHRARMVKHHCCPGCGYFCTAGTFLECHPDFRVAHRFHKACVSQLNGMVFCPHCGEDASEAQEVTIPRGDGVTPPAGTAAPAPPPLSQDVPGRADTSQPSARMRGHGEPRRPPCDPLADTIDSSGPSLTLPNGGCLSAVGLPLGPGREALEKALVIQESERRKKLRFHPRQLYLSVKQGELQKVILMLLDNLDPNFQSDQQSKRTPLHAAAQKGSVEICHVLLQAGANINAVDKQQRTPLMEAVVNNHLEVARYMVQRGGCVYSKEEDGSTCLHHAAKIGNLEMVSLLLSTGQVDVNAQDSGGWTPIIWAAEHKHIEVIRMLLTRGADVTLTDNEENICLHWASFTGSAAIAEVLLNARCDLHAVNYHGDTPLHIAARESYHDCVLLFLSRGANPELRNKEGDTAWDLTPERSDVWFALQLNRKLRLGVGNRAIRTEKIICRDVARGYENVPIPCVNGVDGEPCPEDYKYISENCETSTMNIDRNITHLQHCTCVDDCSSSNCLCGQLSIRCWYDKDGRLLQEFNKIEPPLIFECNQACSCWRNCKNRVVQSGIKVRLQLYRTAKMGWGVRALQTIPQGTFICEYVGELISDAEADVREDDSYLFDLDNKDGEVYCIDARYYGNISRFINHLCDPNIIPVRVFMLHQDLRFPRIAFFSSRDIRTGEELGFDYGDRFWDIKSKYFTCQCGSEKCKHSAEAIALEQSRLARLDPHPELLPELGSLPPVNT
# Procedure: as §1
# [4] = biological target: T2, NSD3 (Homo sapiens, UniProt Q9BZ95); design: protein methyltransferase inhibition panel, single concentration, duplicate
# T2 sequence (Q9BZ95 1-1437): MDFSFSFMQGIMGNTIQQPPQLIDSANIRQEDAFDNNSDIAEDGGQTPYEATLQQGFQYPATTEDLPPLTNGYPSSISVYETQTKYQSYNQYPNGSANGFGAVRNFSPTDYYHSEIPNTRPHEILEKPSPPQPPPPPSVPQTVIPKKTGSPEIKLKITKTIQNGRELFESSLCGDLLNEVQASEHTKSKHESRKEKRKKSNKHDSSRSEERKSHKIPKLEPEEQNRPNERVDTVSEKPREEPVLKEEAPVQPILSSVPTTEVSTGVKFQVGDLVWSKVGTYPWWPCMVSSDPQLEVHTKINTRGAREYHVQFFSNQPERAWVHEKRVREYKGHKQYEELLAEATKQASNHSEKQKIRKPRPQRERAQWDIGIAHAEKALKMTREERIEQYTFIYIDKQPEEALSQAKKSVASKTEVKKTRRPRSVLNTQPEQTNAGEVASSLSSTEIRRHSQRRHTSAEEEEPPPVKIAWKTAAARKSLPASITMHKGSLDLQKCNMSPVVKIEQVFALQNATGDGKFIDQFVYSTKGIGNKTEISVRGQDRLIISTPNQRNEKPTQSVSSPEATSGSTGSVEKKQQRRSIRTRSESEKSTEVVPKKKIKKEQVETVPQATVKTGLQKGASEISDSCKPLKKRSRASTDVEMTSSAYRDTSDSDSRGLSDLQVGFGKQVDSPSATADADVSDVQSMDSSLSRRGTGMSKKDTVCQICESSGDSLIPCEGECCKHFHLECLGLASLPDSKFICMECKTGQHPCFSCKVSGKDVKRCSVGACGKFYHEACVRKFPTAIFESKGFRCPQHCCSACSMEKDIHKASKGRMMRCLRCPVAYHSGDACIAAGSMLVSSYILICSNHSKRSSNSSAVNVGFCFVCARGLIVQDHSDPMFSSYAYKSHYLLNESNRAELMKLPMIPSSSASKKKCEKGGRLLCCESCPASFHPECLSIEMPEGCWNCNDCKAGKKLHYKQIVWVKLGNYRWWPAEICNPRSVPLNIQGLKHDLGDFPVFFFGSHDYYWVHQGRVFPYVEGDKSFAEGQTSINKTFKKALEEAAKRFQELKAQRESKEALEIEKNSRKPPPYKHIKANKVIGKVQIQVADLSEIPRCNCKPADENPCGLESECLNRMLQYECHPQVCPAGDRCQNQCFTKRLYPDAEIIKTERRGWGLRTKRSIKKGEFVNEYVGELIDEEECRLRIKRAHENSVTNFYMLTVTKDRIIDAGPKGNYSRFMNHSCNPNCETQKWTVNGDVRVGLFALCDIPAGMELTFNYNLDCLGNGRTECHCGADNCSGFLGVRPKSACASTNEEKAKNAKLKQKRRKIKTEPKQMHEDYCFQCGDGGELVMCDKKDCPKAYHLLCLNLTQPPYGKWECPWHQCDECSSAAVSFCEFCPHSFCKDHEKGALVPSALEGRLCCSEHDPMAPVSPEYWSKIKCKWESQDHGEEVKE
# Procedure: as §1
# EZH2 Complex, sequence (Q15910 whole entry): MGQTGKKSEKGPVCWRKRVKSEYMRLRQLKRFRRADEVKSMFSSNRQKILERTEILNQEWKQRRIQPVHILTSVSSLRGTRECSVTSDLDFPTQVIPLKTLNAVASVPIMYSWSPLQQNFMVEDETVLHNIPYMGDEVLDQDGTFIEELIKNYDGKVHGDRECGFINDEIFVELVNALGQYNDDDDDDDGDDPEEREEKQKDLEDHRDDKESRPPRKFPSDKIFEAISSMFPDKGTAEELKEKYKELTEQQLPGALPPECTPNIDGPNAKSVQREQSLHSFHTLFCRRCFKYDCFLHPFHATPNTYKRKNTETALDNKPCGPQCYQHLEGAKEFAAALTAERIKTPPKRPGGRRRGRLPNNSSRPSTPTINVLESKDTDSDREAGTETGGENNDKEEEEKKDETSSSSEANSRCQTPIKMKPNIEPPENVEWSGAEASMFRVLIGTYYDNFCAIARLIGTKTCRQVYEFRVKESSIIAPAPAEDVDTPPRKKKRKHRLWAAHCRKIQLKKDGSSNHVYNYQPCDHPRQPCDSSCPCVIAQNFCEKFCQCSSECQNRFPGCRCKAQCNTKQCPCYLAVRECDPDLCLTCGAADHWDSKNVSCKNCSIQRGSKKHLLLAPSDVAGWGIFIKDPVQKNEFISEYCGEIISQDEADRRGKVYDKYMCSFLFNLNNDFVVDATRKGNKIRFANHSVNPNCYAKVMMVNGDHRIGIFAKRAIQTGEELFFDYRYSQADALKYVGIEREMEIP
# EZH2 Complex, sequence (O75530 whole entry partner): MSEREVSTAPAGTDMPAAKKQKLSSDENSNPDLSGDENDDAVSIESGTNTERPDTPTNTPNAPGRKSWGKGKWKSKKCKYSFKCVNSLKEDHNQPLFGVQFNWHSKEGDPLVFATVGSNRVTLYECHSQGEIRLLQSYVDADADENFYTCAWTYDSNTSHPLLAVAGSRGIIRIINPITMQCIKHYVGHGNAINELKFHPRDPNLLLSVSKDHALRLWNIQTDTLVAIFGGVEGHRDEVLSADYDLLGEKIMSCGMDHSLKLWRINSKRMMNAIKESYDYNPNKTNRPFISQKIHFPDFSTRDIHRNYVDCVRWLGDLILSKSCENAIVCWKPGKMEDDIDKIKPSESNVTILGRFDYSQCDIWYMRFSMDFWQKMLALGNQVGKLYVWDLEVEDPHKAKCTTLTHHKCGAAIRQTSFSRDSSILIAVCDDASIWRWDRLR
# EZH2 Complex, sequence (Q09028 whole entry partner): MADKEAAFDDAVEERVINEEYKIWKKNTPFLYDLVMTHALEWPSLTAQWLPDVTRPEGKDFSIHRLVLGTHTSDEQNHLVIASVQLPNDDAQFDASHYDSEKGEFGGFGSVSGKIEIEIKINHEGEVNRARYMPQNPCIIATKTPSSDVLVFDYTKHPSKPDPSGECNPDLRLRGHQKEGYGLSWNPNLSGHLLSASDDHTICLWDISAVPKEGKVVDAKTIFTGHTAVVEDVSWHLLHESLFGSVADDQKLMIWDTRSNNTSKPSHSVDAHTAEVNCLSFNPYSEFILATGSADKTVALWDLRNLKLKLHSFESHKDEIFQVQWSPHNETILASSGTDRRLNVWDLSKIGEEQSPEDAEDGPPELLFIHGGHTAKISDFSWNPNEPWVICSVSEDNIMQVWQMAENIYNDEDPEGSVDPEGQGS
# EZH2 Complex, sequence (Q15022 whole entry partner): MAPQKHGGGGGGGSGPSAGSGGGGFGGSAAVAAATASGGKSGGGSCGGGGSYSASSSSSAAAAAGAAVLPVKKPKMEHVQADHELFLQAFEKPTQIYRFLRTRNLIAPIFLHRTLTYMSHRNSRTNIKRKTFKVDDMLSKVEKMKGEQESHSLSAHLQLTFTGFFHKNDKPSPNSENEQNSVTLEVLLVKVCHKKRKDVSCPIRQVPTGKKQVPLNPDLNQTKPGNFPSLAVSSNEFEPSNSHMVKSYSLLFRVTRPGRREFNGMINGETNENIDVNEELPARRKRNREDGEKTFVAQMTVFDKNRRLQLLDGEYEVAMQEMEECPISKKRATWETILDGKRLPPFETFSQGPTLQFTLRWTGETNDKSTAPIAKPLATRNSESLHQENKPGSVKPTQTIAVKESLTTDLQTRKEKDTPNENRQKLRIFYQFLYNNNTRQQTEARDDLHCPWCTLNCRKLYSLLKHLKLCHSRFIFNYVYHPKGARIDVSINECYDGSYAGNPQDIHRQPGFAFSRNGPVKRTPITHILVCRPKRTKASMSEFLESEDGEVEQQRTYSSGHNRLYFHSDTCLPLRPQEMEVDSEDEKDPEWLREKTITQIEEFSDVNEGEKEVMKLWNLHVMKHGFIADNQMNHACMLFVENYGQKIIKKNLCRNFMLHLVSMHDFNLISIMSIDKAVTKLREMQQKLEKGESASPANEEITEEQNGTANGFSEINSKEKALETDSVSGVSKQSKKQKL
# EZH2 Complex, sequence (Q6ZN18 whole entry partner): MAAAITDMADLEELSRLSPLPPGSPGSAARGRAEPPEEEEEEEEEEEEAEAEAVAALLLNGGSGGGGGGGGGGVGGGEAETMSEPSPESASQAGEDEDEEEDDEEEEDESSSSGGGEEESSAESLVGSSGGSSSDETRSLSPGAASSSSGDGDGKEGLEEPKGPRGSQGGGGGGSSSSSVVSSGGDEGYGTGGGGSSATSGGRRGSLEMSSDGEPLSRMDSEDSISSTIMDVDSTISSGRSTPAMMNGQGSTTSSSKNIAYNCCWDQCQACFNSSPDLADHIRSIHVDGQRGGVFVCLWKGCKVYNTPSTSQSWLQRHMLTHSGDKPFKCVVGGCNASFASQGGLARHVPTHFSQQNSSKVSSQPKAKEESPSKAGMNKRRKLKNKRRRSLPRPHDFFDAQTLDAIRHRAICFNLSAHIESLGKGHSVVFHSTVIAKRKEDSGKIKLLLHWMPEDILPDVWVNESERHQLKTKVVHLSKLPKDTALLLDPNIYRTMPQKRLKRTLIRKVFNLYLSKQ
# PRMT3, sequence (O60678 whole entry): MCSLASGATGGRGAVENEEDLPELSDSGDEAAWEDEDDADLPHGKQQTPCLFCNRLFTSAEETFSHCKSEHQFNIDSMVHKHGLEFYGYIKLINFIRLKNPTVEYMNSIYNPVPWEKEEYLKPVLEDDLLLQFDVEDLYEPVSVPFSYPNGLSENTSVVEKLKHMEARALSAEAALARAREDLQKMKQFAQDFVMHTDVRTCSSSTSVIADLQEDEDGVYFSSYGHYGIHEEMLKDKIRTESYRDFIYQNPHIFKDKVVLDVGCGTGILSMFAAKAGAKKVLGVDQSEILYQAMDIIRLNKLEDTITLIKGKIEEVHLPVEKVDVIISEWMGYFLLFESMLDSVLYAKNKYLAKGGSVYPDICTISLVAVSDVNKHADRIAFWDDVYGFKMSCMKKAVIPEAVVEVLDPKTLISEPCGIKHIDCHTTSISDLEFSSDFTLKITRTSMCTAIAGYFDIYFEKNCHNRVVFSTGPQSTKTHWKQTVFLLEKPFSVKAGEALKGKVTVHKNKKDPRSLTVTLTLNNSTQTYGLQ
smiles,measurement,setting,value
Cc1ncsc1-c1ccc([C@H](C)NC(=O)[C@@H]2C[C@@H](O)CN2C(=O)[C@@H](NC(=O)CNC(=O)c2ccc(F)c(-c3ccc(N4C[C@@H](C)N(C)[C@@H](C)C4)c(NC(=O)c4c[nH]c(=O)cc4C(F)(F)F)c3)c2)C(C)(C)C)cc1 [MS67],remaining activity at 10 µM,[1]; read-out: Enzyme % Activity (relative to DMSO controls) / MS67 / 10 / Data 1:,106%
same,remaining activity at 10 µM,[1]; read-out: Enzyme % Activity (relative to DMSO controls) / MS67 / 10 / Data 2:,101%
same,inhibition at 10 µM,[2],< 10%
same,inhibition at 10 µM,[3],< 10%
same,inhibition at 10 µM,[4],< 10%

# — publication PMC8500670, “A selective WDR5 degrader inhibits acute myeloid leukemia in patient-derived mouse models” (Science translational medicine, 2021)
